Assay results reported in patent publication US20040209318A1, “Reagents and methods for the detection and quantification of vancomycin in bilogical fluids” (priority 1995, published 2004).
Blank lines part the entries; values can stand above or below the compound they belong to.

Legend:
[1] = target: anti-vancomycin Fab fragment; assay: BIAcore solution competition, equilibrium dissociation constant; assay type: binding, mouse; settings: in solution, 20 nM Fab fragment; read-out: Equilibrium Dissociation Constant (KD)
Method: Biosensor surfaces were regenerated after each injection with successive 1 minute pulses of 6 M, 6M, and 1.5 M guanidine hydrochloride. Initial rates of binding of anti-vancomycin Fab fragment to the biosensor surface were measured over a 15 second window beginning 20 seconds postinjection. Data was evaluated by non-linear regression analysis using the solution affinity model built into BIAevaluation 3.0 software (BIAcore, Inc).
The binding affinities of several vancomycin analogs and tracers for anti-vancomycin Fab fragment were determined from solution competition experiments carried out on a BIAcore 2000. Initially, known concentrations of anti-vancomycin Fab fragment (0-22 nM) were injected over the aminoalkyl vancomycin biosensor surface. The initial rate of binding for each anti-vancomycin Fab fragment concentration was obtained by averaging the observed binding rate over a […] window beginning 20 seconds post injection. Data from the first 20 seconds of each sensorgram were omitted due to sample dispersion effects at the start of injections. A plot of initial binding rate versus concentration of anti-vancomycin Fab fragment was fit using a 4-parameter logistic (general model in BIAevaluation 3.0) providing a standard curve. […] A fixed concentration of anti-vancomycin Fab fragment (20 nM) was then mixed with twelve concentrations of each vancomycin analog or tracer and allowed to reach equilibrium. The equilibrium mixtures were individually injected over the aminoalkyl vancomycin biosensor surface, and the concentration of free anti-vancomycin Fab fragment remaining was quantitated by determination of the initial rate of binding to the biosensor surface as described above. A plot of free anti-vancomycin Fab fragment versus total concentration of added analog or tracer provides a competition curve. […] The data points represent the experimentally determined concentrations of free anti-vancomycin Fab fragment in equilibrium solutions at a given concentration of soluble analog or tracer. The curves represent the best nonlinear fit of the data using equation 1 (solution affinity model in BIAevaluation software) below: [formula]
where Fabτ is the concentration of free anti-vancomycin Fab fragment in equilibrium solutions, Fabτ is the total concentration of anti-vancomycin Fab fragment in solution (20 nM), A is the total concentration of added vancomycin analog or tracer, and KD is the equilibrium dissociation constant for the binding of the vancomycin analog or tracer to anti-vancomycin Fab fragment in solution.

[2] = test system: monoclonal antibody #15-109-592; assay: Fluorescence polarization immunoassay of the present invention, cross reactivity; assay type: binding, mouse; settings: for PRESENT INVENTION VALUES / PRESENT INVENTION cross reactivity: 0 ug/mL vancomycin
[3] = test system: sheep polyclonal antibodies against vancomycin; assay: commercially available Abbott Vancomycin assay (TDX/TDXFLX FPIA), cross reactivity; assay type: binding; settings: for COMMERCIAL ASSAY VALUES / COMMERCIAL ASSAY cross reactivity: 0 ug/mL vancomycin
From the text: Commercially available fluorescent polarization assays (FPIA) for vancomycin are available. For instance, commercially available assays (Abbott […]® assays, (hereinafter referred to as the “commercially available Abbott Vancomycin assays(s)”)) include reagents for the quantitative measurement of vancomycin in serum or plasma samples. These assays use a vancomycin derivative labeled with a dichlorotriazinylaminofluorescein (DTAF) (hereinafter referred to as the “commercially available tracer”), and sheep polyclonal antibodies against vancomycin (hereinafter referred to as “commercially available antibodies”). […] In contrast, the commercially available vancomycin assay has elevated levels of CDP-I cross reactivity ranging from 39.58% to 65% with or without vancomycin present. […] (Refer to Table 3 for CDP-I cross-reactivity data.)

[4] = 40 ug/mL vancomycin, 1 ug/mL CDP-I
[5] = 40 ug/mL vancomycin, 10 ug/mL CDP-I
[6] = 40 ug/mL vancomycin, 50 ug/mL CDP-I
[7] = 40 ug/mL vancomycin, 100 ug/mL CDP-I
[8] = 80 ug/mL vancomycin, 1 ug/mL CDP-I
[9] = 80 ug/mL vancomycin, 10 ug/mL CDP-I
[10] = 80 ug/mL vancomycin, 50 ug/mL CDP-I
[11] = 80 ug/mL vancomycin, 100 ug/mL CDP-I

Kd [1]: ≤ 0.0002 µM
Compound: CC(C)CC(C(=O)NC1C(=O)NC(CC(N)=O)C(=O)NC2C(=O)NC3C(=O)NC(C(=O)NC(C(=O)O)c4cc(O)cc(O)c4-c4cc3ccc4O)C(O)c3ccc(c(Cl)c3)Oc3cc2cc(c3OC2OC(CO)C(O)C(O)C2OC2CC(C)(N)C(O)C(C)O2)Oc2ccc(cc2Cl)C1O)N(C)C(=O)CCCCC1SCC2NC(=O)NC21 (centres unmarked) [compound 16]

Kd [1]: 6 µM
Compound: Ring-2 dechloro CDP [compound 12]

Compound: CNC(CC(C)C)C(=O)NC1C(=O)NC(C(=O)O)CC(=O)NC2C(=O)NC3C(=O)NC(C(=O)NC(C(=O)O)c4cc(O)cc(O)c4-c4cc3ccc4O)C(O)c3ccc(c(Cl)c3)Oc3cc2cc(c3OC2OC(CO)C(O)C(O)C2OC2CC(C)(N)C(O)C(C)O2)Oc2ccc(cc2Cl)C1O (centres unmarked) [CDP-I, Crystalline Degradation Product I]
PRESENT INVENTION VALUES ([2]; CDP-I 1 ug/mL): 0.22 µg/mL
PRESENT INVENTION cross reactivity ([2]; CDP-I 1 ug/mL): N.D. (Less than sensitivity at 2.00 ug/mL vancomycin)
PRESENT INVENTION VALUES ([2]; CDP-I 2.5 ug/mL): 0.15 µg/mL
PRESENT INVENTION cross reactivity ([2]; CDP-I 2.5 ug/mL): N.D. (Less than sensitivity at 2.00 ug/mL vancomycin)
PRESENT INVENTION VALUES ([2]; CDP-I 5 ug/mL): 0.26 µg/mL
PRESENT INVENTION cross reactivity ([2]; CDP-I 5 ug/mL): N.D. (Less than sensitivity at 2.00 ug/mL vancomycin)
PRESENT INVENTION VALUES ([2]; CDP-I 7 ug/mL): LOW
PRESENT INVENTION cross reactivity ([2]; CDP-I 7 ug/mL): N.D. (Less than sensitivity at 2.00 ug/mL vancomycin)
PRESENT INVENTION VALUES ([2]; CDP-I 10 ug/mL): 0.13 µg/mL
PRESENT INVENTION cross reactivity ([2]; CDP-I 10 ug/mL): N.D. (Less than sensitivity at 2.00 ug/mL vancomycin)
PRESENT INVENTION VALUES ([2]; CDP-I 15 ug/mL): LOW
PRESENT INVENTION cross reactivity ([2]; CDP-I 15 ug/mL): N.D. (Less than sensitivity at 2.00 ug/mL vancomycin)
PRESENT INVENTION VALUES ([2]; CDP-I 20 ug/mL): 0.46 µg/mL
PRESENT INVENTION cross reactivity ([2]; CDP-I 20 ug/mL): N.D. (Less than sensitivity at 2.00 ug/mL vancomycin)
PRESENT INVENTION VALUES ([2]; CDP-I 25 ug/mL): 0.18 µg/mL
PRESENT INVENTION cross reactivity ([2]; CDP-I 25 ug/mL): N.D. (Less than sensitivity at 2.00 ug/mL vancomycin)
PRESENT INVENTION VALUES ([2]; CDP-I 50 ug/mL): 0.67 µg/mL
PRESENT INVENTION cross reactivity ([2]; CDP-I 50 ug/mL): N.D. (Less than sensitivity at 2.00 ug/mL vancomycin)
PRESENT INVENTION [2, 4]: 40.86 µg/mL
PRESENT INVENTION % C.R. [2, 4]: N.D. (Less than sensitivity at 2.00 ug/mL vancomycin)
PRESENT INVENTION Diff/Sample-Control [2, 4]: -0.20 µg/mL
PRESENT INVENTION [2, 5]: 40.50 µg/mL
PRESENT INVENTION % C.R. [2, 5]: N.D. (Less than sensitivity at 2.00 ug/mL vancomycin)
PRESENT INVENTION Diff/Sample-Control [2, 5]: -0.54 µg/mL
PRESENT INVENTION [2, 6]: 39.13 µg/mL
PRESENT INVENTION % C.R. [2, 6]: N.D. (Less than sensitivity at 2.00 ug/mL vancomycin)
PRESENT INVENTION Diff/Sample-Control [2, 6]: -0.14 µg/mL
PRESENT INVENTION [2, 7]: 37.22 µg/mL
PRESENT INVENTION % C.R. [2, 7]: N.D. (Less than sensitivity at 2.00 ug/mL vancomycin)
PRESENT INVENTION Diff/Sample-Control [2, 7]: 0.24 µg/mL
PRESENT INVENTION % C.R. [2, 8]: N.D. (Less than sensitivity at 2.00 ug/mL vancomycin)
PRESENT INVENTION Diff/Sample-Control [2, 8]: -0.64 µg/mL
PRESENT INVENTION [2, 9]: 79.49 µg/mL
PRESENT INVENTION % C.R. [2, 9]: N.D. (Less than sensitivity at 2.00 ug/mL vancomycin)
PRESENT INVENTION Diff/Sample-Control [2, 9]: -0.50 µg/mL
PRESENT INVENTION [2, 10]: 74.41 µg/mL
PRESENT INVENTION % C.R. [2, 10]: N.D. (Less than sensitivity at 2.00 ug/mL vancomycin)
PRESENT INVENTION Diff/Sample-Control [2, 10]: -0.83 µg/mL
PRESENT INVENTION [2, 11]: 71.22 µg/mL
PRESENT INVENTION % C.R. [2, 11]: N.D. (Less than sensitivity at 2.00 ug/mL vancomycin)
PRESENT INVENTION Diff/Sample-Control [2, 11]: -0.26 µg/mL
cross-reactivity ([2]; vancomycin 0, 40, 80 μg/mL, cross reactants 0, 1, 10, 50, 100 μg/mL): less than 2%
COMMERCIAL ASSAY VALUES ([3]; CDP-I 1 ug/mL): 0.92 µg/mL
COMMERCIAL ASSAY cross reactivity ([3]; CDP-I 1 ug/mL): N.D. (Less than sensitivity at 2.00 ug/mL vancomycin)
COMMERCIAL ASSAY VALUES ([3]; CDP-I 2.5 ug/mL): 1.61 µg/mL
COMMERCIAL ASSAY cross reactivity ([3]; CDP-I 2.5 ug/mL): N.D. (Less than sensitivity at 2.00 ug/mL vancomycin)
COMMERCIAL ASSAY VALUES ([3]; CDP-I 5 ug/mL): 3.25 µg/mL
COMMERCIAL ASSAY cross reactivity ([3]; CDP-I 5 ug/mL): 65%
COMMERCIAL ASSAY VALUES ([3]; CDP-I 7 ug/mL): 4.54 µg/mL
COMMERCIAL ASSAY cross reactivity ([3]; CDP-I 7 ug/mL): 64.86%
COMMERCIAL ASSAY VALUES ([3]; CDP-I 10 ug/mL): 6.42 µg/mL
COMMERCIAL ASSAY cross reactivity ([3]; CDP-I 10 ug/mL): 64.2%
COMMERCIAL ASSAY VALUES ([3]; CDP-I 15 ug/mL): 8.87 µg/mL
COMMERCIAL ASSAY cross reactivity ([3]; CDP-I 15 ug/mL): 59.13%
COMMERCIAL ASSAY VALUES ([3]; CDP-I 20 ug/mL): 11.04 µg/mL
COMMERCIAL ASSAY cross reactivity ([3]; CDP-I 20 ug/mL): 55.20%
COMMERCIAL ASSAY VALUES ([3]; CDP-I 25 ug/mL): 12.94 µg/mL
COMMERCIAL ASSAY cross reactivity ([3]; CDP-I 25 ug/mL): 51.76%
COMMERCIAL ASSAY VALUES ([3]; CDP-I 50 ug/mL): 19.79 µg/mL
COMMERCIAL ASSAY cross reactivity ([3]; CDP-I 50 ug/mL): 39.58%
COMMERCIAL ASSAY [3, 4]: 39.99 µg/mL
COMMERCIAL ASSAY % C.R. [3, 4]: N.D. (Less than sensitivity at 2.00 ug/mL vancomycin)
COMMERCIAL ASSAY Diff/Sample-control [3, 4]: 1.05 µg/mL
COMMERCIAL ASSAY [3, 5]: 43.74 µg/mL
COMMERCIAL ASSAY % C.R. [3, 5]: 48%
COMMERCIAL ASSAY Diff/Sample-control [3, 5]: 4.80 µg/mL
COMMERCIAL ASSAY [3, 6]: 55.49 µg/mL
COMMERCIAL ASSAY % C.R. [3, 6]: 36.66%
COMMERCIAL ASSAY Diff/Sample-control [3, 6]: 18.33 µg/mL
COMMERCIAL ASSAY [3, 7]: 67.35 µg/mL
COMMERCIAL ASSAY % C.R. [3, 7]: 30.85%
COMMERCIAL ASSAY Diff/Sample-control [3, 7]: 30.85 µg/mL
COMMERCIAL ASSAY [3, 8]: 78.85 µg/mL
COMMERCIAL ASSAY % C.R. [3, 8]: N.D. (Less than sensitivity at 2.00 ug/mL vancomycin)
COMMERCIAL ASSAY Diff/Sample-control [3, 8]: -0.68 µg/mL
COMMERCIAL ASSAY [3, 9]: 83.34 µg/mL
COMMERCIAL ASSAY % C.R. [3, 9]: 38.1%
COMMERCIAL ASSAY Diff/Sample-control [3, 9]: 3.81 µg/mL
COMMERCIAL ASSAY % C.R. [3, 10]: HI ((>100))
COMMERCIAL ASSAY Diff/Sample-control [3, 10]: HI ((>100))
COMMERCIAL ASSAY ug/mL [3, 10]: HI ((>100))
COMMERCIAL ASSAY % C.R. [3, 11]: HI ((>100))
COMMERCIAL ASSAY Diff/Sample-control [3, 11]: HI ((>100))
COMMERCIAL ASSAY ug/mL [3, 11]: HI ((>100))
